Test results from US11298391B1, “Topical skin health improvement compositions and administrations thereof” (Lorenol Laboratories, Inc., priority 2017, dated 2022).

Test system: PGE-2
Assay: PGE-2 increase on UVR exposure: control, Retinol and Skin Therapeutic Composition 5 (FIG. 2)
Format: in vivo
Conditions: in the presence of UVR
Description: FIG. 2 illustrates an implementation of the reduction and/or inhibition of skin inflammation as a result of topical application of Skin Therapeutic Composition 5.
A night serum may be prepare including Skin Therapeutic Composition 5. FIG. 2 illustrates an implementation of the reduction and/or inhibition of skin inflammation as a result of topical application of Skin Therapeutic Composition 5. […] Skin Therapeutic 5 encourages collagen growth and inhibits the overproduction of PGE-2 when exposed to UVR.

Question: For `CC1=C(/C=C/C(C)=C/C=C/C(C)=C/CO)C(C)(C)CCC1` [Retinol], which PGE-2 change is on record?
Answer: Its PGE-2 change is “increase in PGE-2”.
